According to article PMC3132655, “Synthesis and In Vitro Evaluation of Novel Nortropane Derivatives as Potential Radiotracers for Muscarinic M2 Receptors” (International Journal of Molecular Imaging, 2011):
Several values for one entry are separate records, joined by “and”; a condition that tells them apart may be missing. Equal values may be shown once. Read-outs that look alike come from different tables or passages of the source.

Assays:
[1] = molecular target: T1, recombinant human muscarinic M2 receptor (Homo sapiens, UniProt P08172); experiment: competitive binding against [3H]NMS, CHO cell membranes, M2; conditions: for affinity for M2 (in words): [3H]NMS competition
T1 construct: purchased Perkin Elmer, Waltham, USA; host or cells: CHO cells (membrane suspensions)
T1 sequence (P08172 1-466): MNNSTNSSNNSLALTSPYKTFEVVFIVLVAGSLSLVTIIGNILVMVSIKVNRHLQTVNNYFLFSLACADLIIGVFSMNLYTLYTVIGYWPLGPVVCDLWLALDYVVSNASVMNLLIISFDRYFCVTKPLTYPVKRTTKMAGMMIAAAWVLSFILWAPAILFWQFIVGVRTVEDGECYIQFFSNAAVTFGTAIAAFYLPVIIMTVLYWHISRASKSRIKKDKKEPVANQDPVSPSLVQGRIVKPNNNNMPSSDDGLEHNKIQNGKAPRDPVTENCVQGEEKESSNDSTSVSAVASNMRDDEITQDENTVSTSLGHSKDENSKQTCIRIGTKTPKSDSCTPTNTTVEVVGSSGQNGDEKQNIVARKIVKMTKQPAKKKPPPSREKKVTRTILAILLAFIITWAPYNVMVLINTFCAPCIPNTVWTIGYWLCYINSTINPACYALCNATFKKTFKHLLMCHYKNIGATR
Method: (§1) Assays were performed on membrane suspensions from CHO cells expressing either the recombinant human muscarinic M1, M2, or the M3 receptor subtype (Perkin Elmer, Waltham, USA).
(§2) In the competitive binding assays, incubation buffer contained 50 mM TRIS-HCl, 10 mM MgCl2, and 1 mM EDTA (pH 7.4 at 4°C). The assays were incubated during 60 min (M1 or M2 receptor subtypes) or 120 min (M3 receptor subtypes) at 27°C. Nonspecific binding was determined using atropine as a competitor in a concentration of 1 μM.
(§3) In the first series of competitive binding assays, the 6β-4′-iodobenzyl ether (5b) and the 6β-4′-iodobenzoate ester (5c) of 6β-nortropinol, as well as the lead compound 6β-acetoxynortropane (5a), were tested. Protein concentrations for undiluted receptor subtype suspensions were 1.2 mg/mL (M1), 4.3 mg/mL (M2), and 2.0 mg/mL (M3). […] Final competitor concentrations ranged from 1.0 · 10^−10 M to 1.0 · 10^−4 M. After incubation, the reaction was rapidly terminated by vacuum filtration over GF/C glass fiber filters, presoaked in 0.3% polyethylenimine (Sigma-Aldrich, Munich, Germany), and washed 5 times with 1 mL of ice-cold buffer. Filters were placed in vials with 10 mL of scintillation fluid (Ultima Gold, Perkin Elmer, Waltham, USA) and counted in a liquid scintillation counter (Tri-Carb 2900 TR Liquid Scintillation Analyzer, Packard. Software version: 3100).
(§4) In the second series of competitive binding assays, derivative 10a and 10b and the lead compound 6β-acetoxynortropane (5a) were tested. In this series, the protein concentrations for undiluted receptor subtype suspensions were 0.6 mg/mL (M1), 7.5 mg/mL (M2), and 1.5 mg/mL (M3). […] Final competitor concentrations ranged from 1.0 · 10^−10 M to 1.0 · 10^−5 M. After incubation, the assays were filtrated over UniFilter 96 GF/C filter plates, presoaked in 0.3% polyethylenimine (Sigma-Aldrich, Munich, Germany), and washed 9 times with 200 μL of ice-cold buffer. 30 μL of scintillation fluid (MicroScint, Perkin Elmer, Waltham, USA) was added, and the filter plates were counted in a liquid scintillation counter (TopCount 5.0 Liquid Scintillation Analyzer, Perkin Elmer, Waltham, USA).

[2] = molecular target: T2, recombinant human muscarinic M1 receptor (Homo sapiens, UniProt P11229); experiment: competitive binding against [3H]NMS, CHO cell membranes, M1; conditions: for selectivity ratio for M2 over M1: ratio of Ki, [3H]NMS; for affinity for M1 (in words): [3H]NMS competition
T2 construct: purchased Perkin Elmer, Waltham, USA; host or cells: CHO cells (membrane suspensions)
T2 sequence (P11229 whole entry): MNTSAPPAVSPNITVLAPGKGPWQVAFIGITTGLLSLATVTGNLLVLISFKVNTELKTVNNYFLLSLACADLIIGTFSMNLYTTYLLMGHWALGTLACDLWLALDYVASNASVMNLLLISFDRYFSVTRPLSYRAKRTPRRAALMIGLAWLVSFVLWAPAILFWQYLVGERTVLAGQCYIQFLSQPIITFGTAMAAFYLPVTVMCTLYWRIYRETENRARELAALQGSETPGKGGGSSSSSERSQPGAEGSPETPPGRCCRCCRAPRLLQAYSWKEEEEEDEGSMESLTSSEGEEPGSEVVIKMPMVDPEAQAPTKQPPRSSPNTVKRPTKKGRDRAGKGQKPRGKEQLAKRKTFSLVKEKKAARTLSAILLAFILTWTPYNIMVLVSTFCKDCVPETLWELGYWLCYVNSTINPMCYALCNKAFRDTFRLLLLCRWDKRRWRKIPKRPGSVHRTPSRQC
Method: as §1, §2, §3, §4

[3] = molecular target: T3, recombinant human muscarinic M3 receptor (Homo sapiens, UniProt P20309); experiment: competitive binding against [3H]NMS, CHO cell membranes, M3; conditions: for selectivity ratio for M2 over M3: ratio of Ki, [3H]NMS; for affinity for M3 (in words): [3H]NMS competition
T3 construct: purchased Perkin Elmer, Waltham, USA; host or cells: CHO cells (membrane suspensions)
T3 sequence (P20309 whole entry): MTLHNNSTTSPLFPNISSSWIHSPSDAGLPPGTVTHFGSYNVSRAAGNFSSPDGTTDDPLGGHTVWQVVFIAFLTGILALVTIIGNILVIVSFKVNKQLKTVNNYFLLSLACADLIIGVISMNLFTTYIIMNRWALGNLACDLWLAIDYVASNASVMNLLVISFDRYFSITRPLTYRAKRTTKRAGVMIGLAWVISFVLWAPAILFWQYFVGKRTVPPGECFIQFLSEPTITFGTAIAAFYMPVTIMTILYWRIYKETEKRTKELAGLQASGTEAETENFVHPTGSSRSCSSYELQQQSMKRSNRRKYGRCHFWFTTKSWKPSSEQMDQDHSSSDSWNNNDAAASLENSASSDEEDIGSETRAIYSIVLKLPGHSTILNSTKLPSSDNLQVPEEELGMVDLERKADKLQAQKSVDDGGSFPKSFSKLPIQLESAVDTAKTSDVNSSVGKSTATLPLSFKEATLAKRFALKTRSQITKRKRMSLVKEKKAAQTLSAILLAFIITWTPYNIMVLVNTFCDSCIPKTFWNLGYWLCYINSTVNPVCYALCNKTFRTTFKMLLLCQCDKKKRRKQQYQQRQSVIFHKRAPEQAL
Method: as §1, §2, §3, §4

muscarinic M2 receptor = conditions: [3H]QNB as reference tracer; ref 27 (Pei et al.); cited from earlier work
[4] = first series, n = 3, [3H]NMS 0.2 nM, read-out: Ki for M2

SMILES | Ki ([1]; Ki for M2, first series/experiment, n = 3, [3H]NMS 0.2 nM, average ± SD) | Ki ([1]; Ki for M2, second series/experiment, n = 4, [3H]NMS 0.13 nM, average ± SD) | Ki ([1]; Ki to M2 receptors, range over both experiments (abstract)) [nM] | selectivity ratio to the M1 ([2]; abstract) [fold] | selectivity ratio for M2 over M1 [2] | selectivity ratio to the M3 ([3]; abstract) [fold] | selectivity ratio for M2 over M3 [3] | Ki (muscarinic M2 receptor) [nM] | affinity for M2 (in words) [1] | Ki [1, 4] [nM] | affinity for M1 (in words) [2] | affinity for M3 (in words) [3]
CC(=O)OC1CC2CCCC1N2 (stereo not drawn) [5a, 6β-acetoxynortropane, reference compound] | 88.1 nM and 88 nM | 71.6 nM and 71 nM | 70 to 90 | 65 | approximately 65 | 70 | ~70 | 2.6 |  |  |  | 
Ic1ccc(COC2CC3CCCC2N3)cc1 (stereo not drawn) [5b, 6β-4′-iodobenzyl ether of 6β-nortropinol] |  |  |  |  | 0.1 |  | 0.2 |  | weak affinity | 3000 | weak affinity | weak affinity
O=C(OC1CC2CCCC1N2)c1ccc(I)cc1 (stereo not drawn) [5c, 6β-4′-iodobenzoate ester of 6β-nortropinol] |  |  |  |  | 0.6 |  | 2.0 |  | weak affinity | 6800 | weak affinity | weak affinity
